Patent US5143903A, “Method of treatment with tripeptide pharmaceutical compositions as immunomodulators” (priority 1989, dated 1992)

Assays:
[1] = test system: Mononuclear cells of peripheral human blood (PBMC); assay: Test on the proliferation of mononuclear cells; assay type: cell-based; design: key: expressing with +, ++ and +++ the substances acting as stimulants (from the least to the most effective); expressing with +, ++ and +++ the substances acting as stimulants (from the least to the most effective); expressing with +, ++ and +++ the substances acting as stimulants (from the least to the most effective); with -, -- and --- the substances inhibiting normal cell growth; with -, -- and --- the substances inhibiting normal cell growth; with -, -- and --- the substances inhibiting normal cell growth; The inactive compounds were expressed with =; separating with / the effects of the higher doses from those of the lower doses; details: Table 2, tritium thymidine; for Effect on cell proliferation, ACTIVATOR USED Interl. 2: PBMC activated with Interleukin 2, 6 days
Experimental: Mononuclear cells of peripheral human blood (PBMC), provided by healthy volunteers, were purified according to techniques normally used in haematology laboratories, and were finally suspended, at a concentration of 1.000.000/ml in the bed RPMI 1640 (company Flow Laboratories), enriched with 10% of heat inactivated human serum, 2 mM of glutamine and 40 mcg/ml of Gentalyn (from Shering Co.).
The cells were cultivated (100.000/pit) in triplicate on plates of 96 flat-bottomed pits, for a varying number of days according to the activating substances used (6 days for Interleukin 2 and PPD, 3 days for PHA and ConA), in 200 microliters of the suspension bed, in an incubator at 37° C. with 5% CO2. During the last 17 hours of culture the cells were marked with 0,5 microCuries of tritium thymidine (TdR). At the end of the incubation period, the radioactivity present in the cells was gathered on fiberglass filters. Embedded TdR was measured in a beta-radiation counter.
The results are expressed as arithmetic averages of the counts.
On the cells cultivated in this manner the effect of the substances derived from snake poison was tested.
Using the same methods employed in the test described above, a series of compounds having a peptide structure according to the invention, along with other control compounds, were tested for their imunomodulant activity.

T lymphocites = assay: Comparison with Interferon gamma: proliferative response of T lymphocites after presentation of B lymphocites treated with PPD; assay type: cell-based; details: 1000 u/ml
Source text: With the aim of more detailed study of the mechanism of action, the effect of the tripeptide PYR-LEU-TRP has been compared to that of Interferon gamma as regards the stimulation of the proliferative response of T lymphocites after presentation of the B lymphocites treated with PPD.

Row | Compound | Effect on cell proliferation, ACTIVATOR USED Interl. 2 [1] | Effect on cell proliferation, ACTIVATOR USED PPD ([1]; PBMC activated with PPD, 6 days) | increase of the basal proliferative response (T lymphocites)
1 | CC(C)C[C@H](NP(=O)(O)O[C@@H]1O[C@@H](C)[C@H](O)[C@@H](O)[C@H]1O)C(=O)N[C@@H](Cc1c[nH]c2ccccc12)C(=O)O [Phosphoramidon] | +++ | +++ | 
2 | Z--PRO--LEU--TRP | +++ |  | 
3 | gamma Interferon: Interferon gamma, compared with the tripeptide at 1000 u/ml |  |  | approximately two and a half times
